Earlier results as cited in US20110052625A1, “COMPOSITIONS AND METHODS FOR TREATING DIABETES USING LISOFYLLINE ANALOGS AND ISLET NEOGENESIS ASSOCIATED PEPTIDE” (DIAKINE THERAPEUTICS, INC., priority 2008, published 2011).
Ends that are not written are not given here.

Tested on: overt diabetic NOD (Non-Obese Diabetic) mice
Conditions: given alone; cited from earlier work

For “GLP-1: "a 300-amino-acid (peptide) incretin synthesized in the small and large intestine by the L-type cells" (HAEGTFTSDVSSYLEGQAAKEFIAWLVKGR; ends and bridges not checked; UniProt P01275 98-127, looked up)”, the effect on hyperglycemia is given as “no effect”.
